Measurements as given in patent US11117875B2, “Crystalline forms, preparation methods and pharmaceutical compositions of ozanimod” (Hangzhou SoliPharma Co., Ltd., priority 2016, dated 2021).
Like-named read-outs stand apart in the source and are kept apart here.

Tests used:
Type in all cases: physicochemical
[1] = Storage at room temperature in desiccators with relative humidity ranging from 10% to 90%; conditions: relative humidity 10% to 90%
[2] = Form stability test at 50° C.; conditions: for Crystalline form, storage time 0 day / Form stability after having been placed at 50° C. for 1 day: 50° C.; for Crystalline form, storage time 0 day: 0 day (start); for Crystalline form, storage time 5 days: placed at 50° C.
Description: The known ozanimod solid of Preparation Example 1 and ozanimod Form 1 of Example 1 were tested in form stability test. The procedures are detailed as follows: placed about 20 mg of the above two samples respectively at 50° C., and studied their form stability.

[3] = Form stability in water (stirred in water)
Description: The form stability in water of the known ozanimod of Preparation Example 1 and ozanimod Form 2 of Example 10 were compared. The procedures are detailed as follows: took about 20 mg of the above two samples respectively, stirred in water, and studied the form stability.

[4] = Form stability under 97% relative humidity; conditions: for Crystalline form, storage time 5 days: 97% RH environment; for Crystalline form, storage time 0 day: 0 day (start)
Description: The known ozanimod of Preparation Example 1 and ozanimod Form 3 of Example 19 were compared in their form stability under 97% relative humidity. The procedures are detailed as follows: placed about 20 mg of the above two samples respectively at 97% RH environment, and studied their crystalline form stability.

[5] = listed as known amorphous form of ozanimod

Row | Compound | Appearance, XRPD and melting point after 4 months storage [1] | Crystalline form, storage time 0 day [2] | Form stability after having been placed at 50° C. for 1 day [2] | Crystalline form, storage time 5 days [2] | Crystalline form, storage time 5 days ([2]; listed as ozanimod Form 1) | Crystalline form after stirred in water for 3 days [3] | Crystalline form after stirred in water for 3 days ([3]; listed as Form 2) | Crystalline form after stirred in water for 3 days ([3]; listed as ozanimod Form 2) | Crystalline form, storage time 5 days [4] | Crystalline form, storage time 0 day ([4]; 97% RH) | Form stability after storage at 97% RH for 10 days ([4]; 97% RH, 10 days) | Form stability at room temperature and 97% relative humidity for 3 days [4] | Crystalline form after stirred in water for 3 days [3, 5] | Form stability after having been placed at 50° C. for 1 day [2, 5] | Form stability at room temperature and 97% relative humidity for 3 days [4, 5]
1 | CC(C)Oc1ccc(-c2nc(-c3cccc4c3CC[C@@H]4NCCO)no2)cc1C#N [Ozanimod Form 1, 5-[3-[(1S)-2,3-dihydro-1-(2-hydroxyethylamino)-1H-inden-4-yl]-1,2,4-oxadiazol-5-yl]-2-isopropoxybenzonitrile] | remained unchanged | Form 1 | remained unchanged | Remained Form 1 | more stable |  |  |  |  |  |  |  |  |  | 
2 | CC(C)Oc1ccc(-c2nc(-c3cccc4c3CC[C@@H]4NCCO)no2)cc1C#N [Ozanimod Form 2, 5-[3-[(1S)-2,3-dihydro-1-(2-hydroxyethylamino)-1H-inden-4-yl]-1,2,4-oxadiazol-5-yl]-2-isopropoxybenzonitrile] | remained unchanged |  |  |  |  | Remained Form 2 | remained unchanged | remained unchanged |  |  |  |  |  |  | 
3 | CC(C)Oc1ccc(-c2nc(-c3cccc4c3CC[C@@H]4NCCO)no2)cc1C#N [Ozanimod Form 3, 5-[3-[(1S)-2,3-dihydro-1-(2-hydroxyethylamino)-1H-inden-4-yl]-1,2,4-oxadiazol-5-yl]-2-isopropoxybenzonitrile] |  |  |  |  |  |  |  |  | Remained Form 3 | Form 3 | remained unchanged | remained unchanged |  |  | 
4 | CC(C)Oc1ccc(-c2nc(-c3cccc4c3CC[C@@H]4NCCO)no2)cc1C#N [The known ozanimod, 5-[3-[(1S)-2,3-dihydro-1-(2-hydroxyethylamino)-1H-inden-4-yl]-1,2,4-oxadiazol-5-yl]-2-isopropoxybenzonitrile, reference compound] |  | Amorphous |  | Weak diffraction |  | Transformed to Form 2 |  |  | Weak diffraction | Amorphous |  |  | turned to Form 2 | showed diffraction peaks | turned to Form 3
